Source: publication PMC8079283 (The Journal of Biological Chemistry, 2021)

Target: T1, NUDT15 (Homo sapiens, UniProt Q9NV35)
T1 sequence (Q9NV35 1-164): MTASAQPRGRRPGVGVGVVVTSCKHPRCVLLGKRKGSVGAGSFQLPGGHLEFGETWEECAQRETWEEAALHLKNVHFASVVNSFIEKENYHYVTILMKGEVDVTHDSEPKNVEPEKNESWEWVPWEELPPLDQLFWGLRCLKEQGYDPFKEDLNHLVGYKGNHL
Assay: X-ray crystal structure
Assay type: biochemical

Ki: 10.2 ± 0.9 nM
SMILES: C[C@@H]1CN(C(=O)c2ccc3c(ccn3C)c2)CCN1S(=O)(=O)c1ccc2[nH]c(=O)oc2c1 [compound 6, (R)-6-((2-methyl-4-(1-methyl-1H-indole-5-carbonyl)piperazin-1-yl)sulfonyl)benzo[d]oxazol-2(3H)-one]
